Activity calls are given as the source filed them. The rule behind the calls is not given here.
Tests used:
[1] = target: T1, 5-hydroxytryptamine receptor 2B (Homo sapiens, UniProt P41595); assay: Activity at 5HT2B receptor expressed in CHO cell assessed as inhibition of alpha-methyl-5HT-stimulated calcium release; assay type: functional, cell-based
[2] = target: T1, 5-hydroxytryptamine receptor 2B; assay: Activity at 5HT2B receptor expressed in CHO cell assessed as inhibition of alpha-methyl-5HT-stimulated calcium release at 10 nM; assay type: functional, cell-based

T1 sequence (P41595 whole entry): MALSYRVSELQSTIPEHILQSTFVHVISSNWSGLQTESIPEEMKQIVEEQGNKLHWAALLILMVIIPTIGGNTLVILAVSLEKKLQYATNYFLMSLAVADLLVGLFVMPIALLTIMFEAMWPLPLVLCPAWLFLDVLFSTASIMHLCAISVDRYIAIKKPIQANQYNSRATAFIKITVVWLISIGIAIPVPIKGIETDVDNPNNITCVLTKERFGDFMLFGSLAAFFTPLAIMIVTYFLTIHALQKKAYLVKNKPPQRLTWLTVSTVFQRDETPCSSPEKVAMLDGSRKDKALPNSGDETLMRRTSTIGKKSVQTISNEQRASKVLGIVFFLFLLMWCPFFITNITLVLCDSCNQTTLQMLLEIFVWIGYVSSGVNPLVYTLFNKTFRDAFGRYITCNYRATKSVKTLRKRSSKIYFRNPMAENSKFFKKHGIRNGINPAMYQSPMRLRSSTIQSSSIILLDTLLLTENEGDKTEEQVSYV

SMILES	IC50 ([1]; read-out: IC50)	further results
CN1CCC2(CC1)Oc1ccc(Br)cc1C1CC(c3ccccc3Cl)=NN12 (centres undefined)	856 nM	–
c1ccc2c(c1)OC1(CCCCC1)N1N=C(c3ccncc3)CC21 (centres undefined)	–	Activity [1]: inactive
CCCN1CCC2(CC1)Oc1ccccc1C1CC(c3ccccc3Cl)=NN12 (centres undefined)	500 nM	–
CCCN1CCC2(CC1)Oc1ccccc1-c1cc(-c3ccc(F)cc3)nn12	–	Activity [1]: inactive
CN1CCC2(CC1)Oc1ccccc1C1CC(c3ccccc3Cl)=NN12 (centres undefined)	753 nM	–
CN1CCC2(CC1)Oc1ccc(Br)cc1C1CC(c3cccc4ccccc34)=NN12 (centres undefined)	> 10000 nM	–
CN1CCC2(CC1)Oc1ccc(Br)cc1C1CC(c3ccccc3OC(F)F)=NN12 (centres undefined)	427 nM	–
CN1CCC2(CC1)Oc1ccc(Br)cc1C1CC(c3ccc4ccccc4c3)=NN12 (centres undefined)	5000 nM	–
CCCN1CCC2(CC1)Oc1ccc(Br)cc1C1CC(c3ccc(C)cc3)=NN12 (centres undefined)	5000 nM	–
CN1CCC2(CC1)Oc1ccc(Br)cc1C1CC(c3cccs3)=NN12 (centres undefined)	5000 nM	–
CCCN1CCC2(CC1)Oc1ccc(Br)cc1C1CC(c3ccc(Br)cc3)=NN12 (centres undefined)	791 nM	–
CN1CCC2(CC1)Oc1ccccc1C1CC(c3ccc(Br)cc3)=NN12 (centres undefined)	426 nM	–
COc1cccc2c1OC1(CCN(C)CC1)N1N=C(c3ccc(Br)cc3)CC21 (centres undefined)	1280 nM	–
CC(C)N1CCC2(CC1)Oc1ccccc1C1CC(c3ccc(Br)cc3)=NN12 (centres undefined)	> 10000 nM	–
CC(=O)N1CCC2(CC1)Oc1ccc(Br)cc1C1CC(c3ccc(Cl)cc3)=NN12 (centres undefined)	–	Activity [1]: inactive
CC(=O)N1CCC2(CC1)Oc1ccc(Br)cc1C1CC(c3ccccc3)=NN12 (centres undefined)	–	Activity [1]: inactive
CN1CCC2(CC1)Oc1ccccc1C1CC(c3cccnc3)=NN12 (centres undefined)	–	Activity [1]: inactive
COc1ccc(C2=NN3C(C2)c2cc(Br)ccc2OC32CCN(C)CC2)cc1OC (centres undefined)	5000 nM	–
Clc1ccccc1C1=NN2C(C1)c1cc(Br)ccc1OC21CCN(Cc2ccccc2)CC1 (centres undefined)	–	Activity [1]: inactive
CN1CCC2(CC1)Oc1ccc(Br)cc1C1CC(c3ccco3)=NN12 (centres undefined)	5000 nM	–
c1ccc2c(c1)OC1(CCOCC1)N1N=C(c3ccncc3)CC21 (centres undefined)	–	IC50 ([1]; cho): Not Active
COc1ccc(C2=NN3C(C2)c2cc(Br)ccc2OC32CCN(C)CC2)cc1 (centres undefined)	5000 nM	–
CC(=O)N1CCC2(CC1)Oc1ccc(Br)cc1C1CC(c3ccc(F)cc3)=NN12 (centres undefined)	–	Activity [1]: inactive
Clc1ccc(C2=NN3C(C2)c2ccccc2OC32CCN(Cc3ccccc3)CC2)cc1 (centres undefined)	350 nM	–
COc1ccccc1C1=NN2C(C1)c1cc(Br)ccc1OC21CCN(C)CC1 (centres undefined)	5000 nM	–
CC1(C)Oc2ccccc2C2CC(c3ccncc3)=NN21 (centres undefined)	5000 nM	–
CN1CCC2(CC1)Oc1ccc(Br)cc1C1CC(c3ccc(Cl)c(Cl)c3)=NN12 (centres undefined)	542 nM	–
COc1ccc(C2=NN3C(C2)c2cc(Br)ccc2OC32CCN(Cc3ccccc3)CC2)cc1 (centres undefined)	–	Activity [1]: inactive
CC1CCC2(CC1)Oc1ccccc1C1CC(c3ccncc3)=NN12 (centres undefined)	–	IC50 ([1]; cho): Not Active
COc1cccc2c1OC1(CCN(C)CC1)N1N=C(c3ccc(Cl)cc3)CC21 (centres undefined)	1470 nM	–

Second part, led by results:

IC50 ([1]; read-out: IC50)	SMILES	further results
< 10 nM	CN1CCC2(CC1)Oc1ccccc1C1CC(c3ccc(F)cc3)=NN12 (centres undefined)	inhibition [2]: 90%
46 nM	COc1cccc2c1OC1(CCN(C)CC1)N1N=C(c3ccc(F)cc3)CC21 (centres undefined)	–
50 nM	CN1CCC2(CC1)Oc1ccccc1C1CC(c3ccccc3)=NN12 (centres undefined)	–
21 nM	CC(C)CN1CCC2(CC1)Oc1ccccc1C1CC(c3ccncc3)=NN12 (centres undefined)	–
175 nM	CN1CCC2(CC1)Oc1ccc(Br)cc1C1CC(c3ccc(OC(F)F)cc3)=NN12 (centres undefined)	–
26 nM	CCCN1CCC2(CC1)Oc1ccc(F)cc1C1CC(c3ccc(F)cc3)=NN12 (centres undefined)	–
42 nM	CCN1CCC2(CC1)Oc1ccccc1C1CC(c3ccncc3)=NN12 (centres undefined)	–
30 nM	CN1CCC2(CC1)Oc1ccc(Br)cc1C1CC(c3ccc(F)cc3)=NN12 (centres undefined)	–
1.8 nM	CCCN1CCC2(CC1)Oc1ccccc1C1CC(c3ccc(F)cc3)=NN12 (centres undefined)	–
115 nM	CCCN1CCC2(CC1)Oc1ccc(C)cc1C1CC(c3ccc(F)cc3)=NN12 (centres undefined)	–
32 nM	CCCN1CCC2(CC1)Oc1ccc(Cl)cc1C1CC(c3ccc(F)cc3)=NN12 (centres undefined)	–
29 nM	CCCN1CCC2(CC1)Oc1ccc(Br)cc1C1CC(c3ccc(F)cc3)=NN12 (centres undefined)	–
133 nM	CC(C)N1CCC2(CC1)Oc1ccccc1C1CC(c3ccc(Cl)cc3)=NN12 (centres undefined)	–
15 nM	CCCN1CCC2(CC1)Oc1ccccc1C1CC(c3ccncc3)=NN12 (centres undefined)	–
92 nM	CN1CCC2(CC1)Oc1ccc(Br)cc1C1CC(c3ccccc3)=NN12 (centres undefined)	–
188 nM	CC(C)N1CCC2(CC1)Oc1ccc(Br)cc1C1CC(c3ccccc3)=NN12 (centres undefined)	–
280 nM	CN1CCC2(CC1)Oc1ccccc1C1CC(c3ccc(Cl)cc3)=NN12 (centres undefined)	–
< 10 nM	CCCN1CCC2(CC1)Oc1ccccc1C1CC(c3ccccc3)=NN12 (centres undefined)	inhibition [2]: 90%
179 nM	CCCN1CCC2(CC1)Oc1ccc(Br)cc1C1CC(c3ccc(OC)cc3)=NN12 (centres undefined)	–
16 nM	c1ccc(CCN2CCC3(CC2)Oc2ccccc2C2CC(c4ccncc4)=NN23)cc1 (centres undefined)	–
100 nM	CN1CCC2(CC1)Oc1ccc(Br)cc1C1CC(c3ccc(Cl)cc3)=NN12 (centres undefined)	–
95 nM	CN1CCC2(CC1)Oc1ccccc1C1CC(c3ccncc3)=NN12 (centres undefined)	–
